{
  "source": "patent US6906035B2",
  "about": "“Antimicrobial cationic peptides” (priority 1995, dated 2005)",
  "key": {"[1]": {"tested_on": "P. aeruginosa", "procedure": "(§1) FICs are performed by checkerboard titrations of peptides in one dimension of a microtiter plate, and of antibiotics in the other dimension, for example. The FIC is calculated by looking at the impact of one antibiotic on the MIC of the other and vice versa. […] Preferably, an FIC of less than 0.5 is obtained for synergism. As used herein, FIC can be determined as follows: [formula]\n(§2) Briefly, cells were grown overnight at 37° C. in LB-S (Luria broth without any salt supplement) and diluted one in 10,000 in the same medium to give concentrations of about 10^4 to 10^5 CFU/ml. The broth dilutions were set up in a 96 well microtiter plate by putting 200 μl of LB-S containing the initial concentration of antibiotic or compound in column 1 and 100 μl of the same medium in columns 2-12. The compounds were diluted by taking 100 μl of broth from column 1 and mixing it with column 2, resulting in a one in two dilution. This was continued to column 10. Finally, 10 μl of bacteria were pipetted into columns 1-11, and the plates incubated overnight at 37° C. The next day the plates were scored for growth in the wells, and the MIC determined."}, "[2]": {"tested_on": "S. epidermis", "conditions": "S. epidermis", "procedure": "as §1, §2"}, "[3]": {"tested_on": "A. calcoaceticus", "assay": "MIC, broth dilution in LB-S", "type": "cell-based", "conditions": "additional MICs", "procedure": "(§3) The biological activity of the peptides can be determined by standard methods known to those of skill in the art, such as “minimal inhibitory concentration (MIC)” assay described in the present examples, whereby the lowest concentration at which no change in OD is observed for a given period of time is recorded as MIC. Alternatively, “fractional inhibitory concentration (FIC)” is also useful for determination of synergy between the peptides of the invention, or the peptides in combination with known antibiotics. FICs are performed by checkerboard titrations of peptides in one dimension of a microtiter plate, and of antibiotics in the other dimension, for example. The FIC is calculated by looking at the impact of one antibiotic on the MIC of the other and vice versa. […] Preferably, an FIC of less than 0.5 is obtained for synergism. As used herein, FIC can be determined as follows: [formula]\nas §2"}, "[4]": {"tested_on": "E. cloacae", "assay": "MIC, broth dilution in LB-S", "type": "cell-based", "conditions": "additional MICs", "procedure": "as §3, §2"}, "[5]": {"tested_on": "E. coli", "assay": "MIC, broth dilution in LB-S", "type": "cell-based", "procedure": "as §3, §2"}, "[6]": {"tested_on": "E. faecalis", "assay": "MIC, broth dilution in LB-S", "type": "cell-based", "conditions": "Table 1b, separate set of experiments", "procedure": "as §3, §2"}, "[7]": {"tested_on": "K. pneumoniae", "assay": "MIC, broth dilution in LB-S", "type": "cell-based", "conditions": "additional MICs", "procedure": "as §3, §2"}, "[8]": {"tested_on": "S. aureus", "assay": "MIC, broth dilution in LB-S", "type": "cell-based", "procedure": "as §3, §2"}, "[9]": {"tested_on": "X maltophilia", "assay": "MIC, broth dilution in LB-S", "type": "cell-based", "conditions": "additional MICs", "procedure": "as §3, §2"}, "[10]": {"tested_on": "Candida albicans", "assay": "MIC, broth dilution in LB-S", "type": "cell-based", "procedure": "as §1, §2"}, "[11]": {"tested_on": "E. coli ML 35", "assay": "Inner membrane permeabilization (ONPG hydrolysis by β-galactosidase)", "type": "cell-based", "conditions": "E. coli ML 35, ONPG", "procedure": "Inner membrane permeability was determined by measurement in E. coli ML 35 of β-galactosidase activity using ONPG as a substrate. Normally ONPG cannot pass across the cytoplasmic membrane to permit hydrolysis by the cytoplasmic enzyme β-galactosidase. However, cationic peptides, by permeabilizing the inner membrane, unmasks this enzyme leading to color development as ONP is released. […] Addition of citrate increased the lag time before the peptides were able to permeabilize the membranes. When the experiments were executed in cation adjusted media (CAMHB), the lag time was increased up to 30 minutes."}, "[12]": {"tested_on": "LPS", "assay": "Dansyl polymyxin displacement assay", "type": "binding", "conditions": "Dansyl polymyxin displacement from LPS", "text": "In addition, the peptides of SEQ ID NO: 5-8 also bound effectively to LPS with high affinity based on Dansyl polymyxin displacement assays (Table 5)."}, "[13]": {"tested_on": "Red Blood Cells", "assay": "Red blood cell lysis", "type": "cell-based", "conditions": "concentration lysing Red Blood Cells"}, "[14]": {"assay": "α helical content by CD spectra", "type": "physicochemical", "procedure": "α Helical Content of Cationic Peptides by CD Spectra\nThe α helical content of the peptides were measured in buffer, liposomes and 20% Hexafluoroisopropanol (HFPIP). The liposomes constituted of POPC alone or POPC and POPC and 30% POPG (Table 7)."}, "[15]": {"tested_on": "A. calcoaceticus", "conditions": "agent alone", "procedure": "as §1\n(§4) Synergism is identified as an FIC of about ≦0.5."}, "[16]": {"tested_on": "E. cloacae", "conditions": "agent alone", "procedure": "as §1, §4"}, "[17]": {"tested_on": "P. aeruginosa", "assay": "microbe, parasite or virus in culture", "conditions": "agent alone", "procedure": "as §1, §4"}, "[18]": {"tested_on": "X. maltophila", "assay": "organism not typed", "conditions": "agent alone", "procedure": "as §1, §4"}},
  "note": "Values joined by “and” are separate entries in the source; they are usually repeats but may differ in a detail not shown here. Identical values can stand only once. Like-named read-outs stand apart in the source and are kept apart here. Ends that are not written are not given here.",
  "data": [
    {"sequence": "KWKSFIKKLTSAAKKVVTTAKPLISS [MBI 26]", "values": [
      {"measurement": "MIC", "setting": "[1]; P. aeruginasa (H 103), additional MICs", "value": 4, "unit": "µg/mL"},
      {"measurement": "MIC", "setting": "[1]; P. aeruginosa (H187), Table 1a", "value": 11, "unit": "µg/mL"},
      {"measurement": "MIC", "setting": "[1]; P. aeruginosa (H187), Table 1b, separate set of experiments", "value": 32, "unit": "µg/mL"},
      {"measurement": "MIC P. aeruginosa (H187)", "setting": "[1]; P. aeruginosa (H187), Table 6", "value": 4.5, "unit": "µg/mL"},
      {"measurement": "MIC", "setting": "[2]; Table 1a", "value": "≧64"},
      {"measurement": "MIC", "setting": "[2]; Table 1b, separate set of experiments", "value": 32, "unit": "µg/mL"},
      {"measurement": "MIC", "setting": "[3]", "value": 2, "unit": "µg/mL"},
      {"measurement": "MIC", "setting": "[4]", "value": 2, "unit": "µg/mL"},
      {"measurement": "MIC", "setting": "[5]; E. coli 0111:B4, additional MICs", "value": 2, "unit": "µg/mL"},
      {"measurement": "MIC", "setting": "[5]; E. coli (UB1005), Table 1a", "value": 3, "unit": "µg/mL"},
      {"measurement": "MIC", "setting": "[5]; E. coli (UB1005), Table 1b, separate set of experiments", "value": 4, "unit": "µg/mL"},
      {"measurement": "MIC E. coli (UB 1005)", "setting": "[5]; E. coli (UB 1005), Table 6", "value": 1.1, "unit": "µg/mL"},
      {"measurement": "MIC", "setting": "[5]; E. coli. Bort, additional MICs", "value": 2, "unit": "µg/mL"},
      {"measurement": "MIC", "setting": "[6]", "value": "≧64"},
      {"measurement": "MIC", "setting": "[7]", "value": 8, "unit": "µg/mL"},
      {"measurement": "MIC", "setting": "[8]; S. aureus (K 147), Table 1a", "value": "≧64"},
      {"measurement": "MIC", "setting": "[8]; S. aureus (K147), Table 1b, separate set of experiments", "value": "≧64"},
      {"measurement": "MIC", "setting": "[8]; S. aureus (SAP0017), Table 1a", "value": "≧64"},
      {"measurement": "MIC", "setting": "[8]; S. aureus (SAP0017), Table 1b, separate set of experiments", "value": "≧64"},
      {"measurement": "MIC", "setting": "[9]", "value": 2, "unit": "µg/mL"},
      {"measurement": "MIC", "setting": "[10]; Candida albicans (CAN105), Table 1b, separate set of experiments", "value": "≧64"},
      {"measurement": "MIC", "setting": "[10]; Candida alibicans (CAN105), Table 1a", "value": "≧64"},
      {"measurement": "Lag Time", "setting": "[11]", "value": 210, "unit": "s"},
      {"measurement": "Rate of Hydrolysis", "setting": "[11]", "value": "0.081 ΔAU min^−1"},
      {"measurement": "1max", "setting": "[12]", "value": 38, "unit": "%"},
      {"measurement": "RBC Lysis", "setting": "[13]", "value": ">55", "unit": "µg/mL"},
      {"measurement": "% α helicity", "setting": "[14]; 20% HFIP", "value": 70, "unit": "%"},
      {"measurement": "% α helicity", "setting": "[14]; Buffer", "value": 0, "unit": "%"},
      {"measurement": "% α helicity", "setting": "[14]; POPC Liposomes", "value": 0, "unit": "%"},
      {"measurement": "% α helicity", "setting": "[14]; POPC/POPG Liposomes (30% POPG)", "value": 8, "unit": "%"},
      {"measurement": "MIC", "setting": "[15]; A. calcoaceticus isolate 1, strain ATCC 23055", "value": "128 µg/mL and 64 µg/mL"},
      {"measurement": "MIC", "setting": "[15]; A. calcoaceticus isolate 2, strain 23", "value": "32 µg/mL and 64 µg/mL"},
      {"measurement": "MIC", "setting": "[15]; A. calcoaceticus isolate 3, strain 27", "value": "64 µg/mL and 32 µg/mL"},
      {"measurement": "MIC", "setting": "[15]; A. calcoaceticus isolate 4, strain 28", "value": "16 µg/mL and 32 µg/mL"},
      {"measurement": "MIC", "setting": "[15]; A. calcoaceticus isolate 5, strain 8220", "value": "64 µg/mL and 32 µg/mL"},
      {"measurement": "MIC", "setting": "[15]; A. calcoaceticus isolate 6, strain 8221", "value": 64, "unit": "µg/mL"},
      {"measurement": "MIC", "setting": "[15]; A. calcoaceticus isolate 7, strain 8222", "value": 64, "unit": "µg/mL"},
      {"measurement": "MIC", "setting": "[15]; A. calcoaceticus isolate 8, strain 8223", "value": "64 µg/mL and 32 µg/mL"},
      {"measurement": "MIC", "setting": "[15]; A. calcoaceticus isolate 9, strain 8224", "value": 64, "unit": "µg/mL"},
      {"measurement": "MIC", "setting": "[15]; A. calcoaceticus isolate 10, strain 8225", "value": 64, "unit": "µg/mL"},
      {"measurement": "MIC", "setting": "[15]; A. calcoaceticus isolate 11, strain 8226", "value": 64, "unit": "µg/mL"},
      {"measurement": "MIC", "setting": "[16]; E. cloacae isolate 14, strain 938-2", "value": 64, "unit": "µg/mL"},
      {"measurement": "MIC", "setting": "[16]; E. cloacae isolate 15, strain B5546", "value": "64 µg/mL and 32 µg/mL"},
      {"measurement": "MIC", "setting": "[16]; E. cloacae isolate 16, strain R4148", "value": "64 µg/mL and 32 µg/mL"},
      {"measurement": "MIC", "setting": "[16]; E. cloacae isolate 17, strain R4148-2", "value": "64 µg/mL and 32 µg/mL"},
      {"measurement": "MIC", "setting": "[16]; E. cloacae isolate 18, strain 3077", "value": 64, "unit": "µg/mL"},
      {"measurement": "MIC", "setting": "[16]; E. cloacae isolate 19, strain 3356", "value": "128 µg/mL and 64 µg/mL"},
      {"measurement": "MIC", "setting": "[17]; P. aeruginosa isolate 23, strain ATCC 27853", "value": "64 µg/mL and 128 µg/mL"},
      {"measurement": "MIC", "setting": "[17]; P. aeruginosa isolate 24, strain 34", "value": "64 µg/mL and 128 µg/mL"},
      {"measurement": "MIC", "setting": "[17]; P. aeruginosa isolate 25, strain 923-1", "value": "64 µg/mL and 128 µg/mL"},
      {"measurement": "MIC", "setting": "[17]; P. aeruginosa isolate 26, strain 3101", "value": "64 µg/mL and 128 µg/mL"},
      {"measurement": "MIC", "setting": "[18]; X. maltophila isolate 34, strain ATCC 13637", "value": 64, "unit": "µg/mL"},
      {"measurement": "MIC", "setting": "[18]; X. maltophila isolate 35, strain 6", "value": "64 µg/mL and 128 µg/mL"},
      {"measurement": "MIC", "setting": "[18]; X. maltophila isolate 40, strain R1302-1", "value": "128 µg/mL and 64 µg/mL"},
      {"measurement": "MIC", "setting": "[18]; X. maltophila isolate 41, strain R4230", "value": 64, "unit": "µg/mL"}
    ]}
  ]
}
